Experiment [1] relates to Achaea janata. As to the kind of experiment: Antifeedant activity against fourth instar larvae of Achaea janata fed on compound treated castor leaves at 200 ppm after 24 hrs by leaf disc method. It counts as functional, organism-based.
Experiment [2] relates to Staphylococcus aureus. As to the kind of experiment: Antibacterial activity against Staphylococcus aureus at 250 ug/ml after 24 to 45 hrs by disc diffusion method. It counts as functional. As to conditions: read-out: IZ. Background: Agar diffusion results depend on both activity and mobility in agar.
Experiment [3] relates to Candida albicans. As to the kind of experiment: Antifungal activity against Candida albicans at 250 ug/ml after 72 hrs by disc diffusion method. As to conditions: for zone of inhibition at 250 µg/mL: read-out: IZ. It is filed as functional.
In experiment [4] the test system is Enterococcus faecalis. As to the kind of experiment: Antibacterial activity against Enterococcus faecalis at 250 ug/ml after 24 to 45 hrs by disc diffusion method. As to conditions: for zone of inhibition at 250 µg/mL: read-out: IZ. It is filed as functional.
The subject of experiment [5] is Aspergillus niger. As to the kind of experiment: Antifungal activity against Aspergillus niger at 50 ug/ml after 72 hrs by disc diffusion method. It counts as functional, organism-based.
The test system of experiment [6] is Penicillium. As to the kind of experiment: Antifungal activity against Penicillium at 50 ug/ml after 72 hrs by disc diffusion method. It counts as functional, organism-based.
In experiment [7] the test system is Pseudomonas. As to the kind of experiment: Antibacterial activity against Pseudomonas at 250 ug/ml after 24 to 45 hrs by disc diffusion method. It is filed as functional. As to conditions: read-out: IZ.
Experiment [8] deals with Escherichia coli. As to the kind of experiment: Antibacterial activity against Escherichia coli at 250 ug/ml after 24 to 45 hrs by disc diffusion method. It counts as functional. As to conditions: read-out: IZ.
Experiment [9] has as its system Proteus vulgaris. As to the kind of experiment: Antibacterial activity against Proteus vulgaris at 250 ug/ml after 24 to 45 hrs by disc diffusion method. It is filed as functional. As to conditions: read-out: IZ.
The test system of experiment [10] is Klebsiella pneumoniae. As to the kind of experiment: Antibacterial activity against Klebsiella pneumoniae at 250 ug/ml after 24 to 45 hrs by disc diffusion method. It counts as functional. As to conditions: read-out: IZ.

Active and inactive are the calls of the source.

As for `Cc1cc(Cl)c2c(c1)CN1CN2Cc2cc(C)cc(Cl)c21`, the outcome in experiment [1] was Active. Further, the zone of inhibition at 250 µg/mL in experiment [2] stood at 13 mm; in [7] it was 8 mm; in experiment [8], 13 mm; in experiment [9], 13 mm; in experiment [10], 13 mm. The result in experiment [3], in [4], in experiment [5] and in experiment [6] was inactive.

`Cc1cc2c(cc1F)N1Cc3cc(C)c(F)cc3N(C2)C1`: in experiment [1], the result was Active. Moreover, the zone of inhibition at 250 µg/mL in experiment [2] was 13 mm; in experiment [3] it was 13 mm; in experiment [4], 8 mm; in [7], 13 mm; in experiment [8], 13 mm; in experiment [9] it was 13 mm. The zone of inhibition at 250 µg/mL in experiment [10] stood at 13 mm. The result in experiment [5] and in experiment [6] was inactive.

Regarding `Fc1ccc2c(c1)CN1CN2Cc2cc(F)ccc21`, in experiment [1], the result was Active. Besides, the zone of inhibition at 250 µg/mL in experiment [2] amounted to 13 mm; in [3], 8 mm; in experiment [7] it was 8 mm; in [8] it was 13 mm; in experiment [9], 13 mm; in experiment [10] it was 13 mm. Also, the outcome in experiment [4], in [5] and in [6] was inactive.

Consider `Cc1ccc2c(c1Cl)CN1CN2Cc2c1ccc(C)c2Cl`, for which the result in experiment [1] was Active. In addition, the zone of inhibition at 250 µg/mL turned out to be 13 mm in [2]; 13 mm in experiment [3]; 8 mm in [4]; 13 mm in experiment [7]; 13 mm in [8]; 13 mm in experiment [9]. The zone of inhibition at 250 µg/mL in [10] was found to be 13 mm. For the same molecule, the result in experiment [5] and in experiment [6] was inactive.

`Cc1cc2c(cc1I)N1Cc3cc(C)c(I)cc3N(C2)C1`: the result in experiment [1] was Active. In addition, the zone of inhibition at 250 µg/mL in experiment [2] amounted to 13 mm; in experiment [3], 13 mm; in experiment [7] it was 8 mm; in [8], 8 mm; in experiment [9], 8 mm; in experiment [10], 8 mm. The outcome in experiment [4], in [5] and in experiment [6] was inactive.

As for `O=C(c1ccccc1)c1cc(Cl)cc2c1N1Cc3cc(Cl)cc(C(=O)c4ccccc4)c3N(C2)C1`, the outcome in experiment [1] and in [5] was Active. Also, the zone of inhibition at 250 µg/mL was 13 mm in experiment [2]; 20 mm in [3]; 13 mm in [7]; 13 mm in experiment [8]; 13 mm in [9]; 13 mm in experiment [10]. Besides, the outcome in experiment [4] and in [6] was inactive.

Take `Brc1ccc2c(c1)CN1CN2Cc2cc(Br)ccc21`: the outcome in [1], in experiment [5] and in experiment [6] was Active. Further, the zone of inhibition at 250 µg/mL was 20 mm in experiment [2]; 20 mm in [3]; 20 mm in [4]; 13 mm in [7]; 20 mm in experiment [8]; 13 mm in [9]. In addition, the zone of inhibition at 250 µg/mL in [10] came out at 20 mm.
